Values quoted from earlier work in patent US20050008656A1, “Compositions and methods for an orally administered inhibitor of biting insects” (priority 2003, published 2005).

Assays:
[1] = in vivo
[2] = in vivo; remark: listed apart in the source
biting insects = settings: ingested

## O=C(O)CCCC[C@@H]1SC[C@@H]2NC(=O)N[C@@H]21 [Biotin]
[1]
  toxicity (in words): No toxic levels are known

## Cyanocobalamin [B12]
[2]
  time needed to be absorbed: ~3 h

## O[C@H]1[C@H](O)[C@@H](O)[C@H](O)[C@@H](O)[C@H]1O [inositol]
[1]
  toxicity (in words): No toxic effects known

## O=C(O)c1cccnc1 [Nicotinic acid]
[1]
  dose above which flushing by dilating the blood vessels occurs: > 200 mg

## Cc1ncc(C[n+]2csc(CCO)c2C)c(N)n1 [thiamine]
Biting insects
  effectiveness at inhibiting insects from biting: not effective

## CC1CCC(C(C)(C)O)C(O)C1 (stereo not shown) [PMD, p-menthane-3,8-diol, reference compound]
[1]
  eye irritation: significant eye irritation

## C/C=C/C=C/C(=O)O [Sorbic acid]
[1]
  toxicity (in words): non-toxic even when taken in large quantities

## C[N+](C)(C)CCO [choline]
[1]
  maximum level set for safety: 3.5 g/day

## CCN(CC)C(=O)c1cccc(C)c1 [DEET, N, N-diethyl-3-methylbenzamide, reference compound]
[1]
  toxicity (in words): toxicity, including encephalopathy and seizures

## Cc1ncc(CO)c(CO)c1O [Vitamin B6, Pyridoxine]
[1]
  dosage above which neurological damage may be caused: > 2,000 mg per day
